Earlier results, collected in article PMC2748991 (Planta medica, 2009).

Legend:
elastase = conditions: ref [3],[4]
trypsin = conditions: ref [5]

## lyngbyastatin 5
elastase
  elastase inhibition (in words): potent inhibitors

## lyngbyastatin 6
elastase
  elastase inhibition (in words): potent inhibitors

## pompanopeptin A
trypsin
  trypsin inhibition (in words): trypsin inhibitor
